Values joined by “and” are separate entries in the source; they are usually repeats but may differ in a detail not shown here. Equal values may be shown once. Where a name gives a salt, the structure may show the parent alone. Read-outs that look alike come from different tables or passages of the source.
Tests used:
[1] = cited from earlier work
[2] = cited from earlier work; remark: listed apart in the source
[3] = monkey, in vivo; cited from earlier work
[4] = GCDCA-S CLh and fe inferred from other reported clinical DDI studies; format: in vivo, human
Experimental: Verification of GCDCA-S fe estimated in this study
The validity of GCDCA-S CLh and renal excretion fraction (fe) estimated in this study was evaluated by incorporating the GCDCA-S mean plasma concentration profile in other reported clinical DDI studies into the developed POPPK models. In the absence of inhibitors, under steady-state conditions (where dC/dt=0), GCDCA-S ksyn is expressed as shown in Equation 13. In the presence of rifampicin, at t=Tmax (where dC/dt=0), GCDCA-S ksyn is expressed as shown in Equation 14. By solving equation 13 and 14, CLh can be derived as shown in Equation 15. The CLh and fe values inferred from data obtained in each […]
ksyn = Cbaseline × CLh + Cbaseline × CLR (Eq.13)
k = C × CLh + C × CL (Eq.14) […]
CL = CL × Cmax−Cbaseline > CL × Cmax−Cbaseline (Eq.15)
h R Cbaseline − Cmax × 1 R Cbaseline where Cbaseline (µM) is plasma baseline concentration, Cmax (µM) is maximum plasma concentration, ksyn (µmol/h) is the zero-order synthesis rate, CLh (L/h) is hepatic clearance, CLR (L/h) is renal clearance, Cu,RIF (µM) is unbound plasma concentration of rifampicin, Ki,u,OATP1B3 (µM) is unbound inhibition constant against OATP1B3 for rifampicin.
Table S6. GCDCA-S CLh and fe inferred from other reported clinical DDI studies Reported values Inferred values Ref […]
Cbaseline, plasma baseline concentration of GCDCA-S; Cmax, maximum plasma concentration of GCDCA-S; fe, fraction excreted in urine of GCDCA-S; CLh, hepatic clearance of GCDCA-S; CLR, renal clearance […]
a Average concentration from 0 to 24hours. b The CLR value reported by Willemin et al.17 was used for calculation. Even when using the reported CLR values from other studies, the corresponding increase in CLh ensures that the estimated fe value in this calculation remains unchanged.

[5] = baseline and interaction profile after rifampicin administration; cited from earlier work
[6] = Synthesis rate of precursor bile acids and inferred GCDCA-S ksyn; parameters: species or system human
Text: Verification of GCDCA-S ksyn estimated in this study
Literature data on the SULT2A1-mediated sulfation rate of GCDCA were not available. To evaluate the validity of GCDCA-S ksyn estimated by the POPPK model, GCDCA-S ksyn was assumed to be constrained by the synthesis rate of its precursor bile acids, and an inference was made based on the reported ksyn value of the corresponding precursors (CDCA and GCDCA).
In the absence of an inhibitor, ksyn of bile acids in the turnover model is represented by Equation 11.
Under steady-state conditions (where dC/dt=0), and given that the values of CLR of GCDCA-S and its corresponding precursors are relatively small compared to their CLh, ksyn of bile acids is expressed by Equation 12.10,11 It has been reported that the biliary excretion of bile acid sulfates is slower than that of their unsulfated forms,10,12 and assuming CLh,GCDCA-S < CLh,precursors, GCDCA-S ksyn was inferred, as […]
dt = [ksyn − (Cbile acid × CLh + Cbile acid × CLR)] × Vc (Eq.11)
ksyn = Cbile acid × CLh (Eq.12) where C (µM) is plasma concentration, ksyn (µmol/h) is the zero-order synthesis rate, CLh (L/h) is hepatic clearance, CLR (L/h) is renal clearance, VC (L) is the volume of distribution.
Table S5. GCDCA-S ksyn inferred from the ksyn of its corresponding precursors Biomarker Plasma baseline (nM) Denovo ksyn (µmol/h)
Reported value Ref Reported value Ref Notes
Biomarker Plasma baseline (nM) Inferred ksyn (µmol/h)
< 3.0 Based on information 1 […]
< 2.2 Based on information 3 aAveraged Cmean value of the baseline and control groups. bSynthesis rate of unconjugated chenodeoxycholic acid. cAveraged synthesis rate of chenodeoxycholic acid reported in six studies. dSynthesis rate of chenodeoxycholic acid-glycine.

[7] = Population PK turnover model of GCDCA-S (plasma and urine data); format: in vivo, human
Experimental: (§1) Individual plasma and urine data of GCDCA‐S in healthy subjects were obtained from three clinical studies. Tatosian et al.[18] (study #1) consisted of two occasions: on both occasions, a microdose probe drug cocktail for multiple clinically relevant transporters was administered, with a single oral dose of 600 mg rifampicin co‐administered on the second occasion (n = 6; 3 males, 3 females). Willemin et al.[22] (study #2) was a two‐phase, cross‐over study with a 21‐day washout period between the two phases. […] Study #3 consists of unpublished data from the same study design as reported by Willemin et al. (n = 12; 12 males).[22]
(§2) Models were evaluated using visual predictive check (VPC) plots, goodness‐of‐fit (GOF) plots, parameter uncertainty, and changes in objective function. Model visualization and simulations were conducted in MATLAB 2024a (MathWorks, Natick, MA, USA) and Graph Pad Prism 10.2.2 (GraphPad software, La Jolla, CA, USA).
(§3) The structural model for rifampicin was based on our previous report,[33] and represents a one‐compartment model with zero‐order absorption and linear elimination.
Different functions for evaluating diurnal fluctuation (e.g., Bateman, Power function) were investigated and applied to the synthesis rate in the GCDCA‐S model.
(§4) The models for rifampicin, probenecid, and GCDCA‐S incorporated both inter‐individual variability for a number of model parameters (assuming log‐normal distribution) and residual unexplained variability (using a combination of proportional and additive error models).

[8] = human, in vivo; cited from earlier work
[9] = Plasma baseline concentration of bile acid biomarkers in clinical studies; format: in vivo, human; settings: Study #3 (unpublished data); average concentration 0 to 24 hours, no inhibitor
Experimental: as §1
Details of the clinical studies are in Table S1 . […] Simulations were conducted in agreement with the reported study designs. The median (50th percentile) of the predicted concentrations, along with the 90% prediction interval (5th and 95th percentiles), was plotted and compared against the observed data.
Table S1. […]
Cbaseline, GCDCA-S plasma baseline concentration in the absence of inhibitors. a Plasma concentration of subjects with SLCO1B1 c.521TT genotype were used for model verification. b In both occasions, Letermovir 480mg was administered, and it has been reported that single-dose Letermovir led to small increases in GCDCA-S concentrations vs. predose levels. c Calculated based on the reported plasma AUC0-24h.

OATP1B transporters = settings: in vitro; cited from earlier work
[10] = Population PK model of probenecid (plasma data); format: in vivo, human; settings: population estimate (RSE%)
Experimental: as §1, §2, §3, §4

[11] = parameters: method as in PMID 19131563, PMID 1150035, PMID 955496, PMID 34686523; settings: healthy human volunteers; cited from earlier work
[12] = information 2 (CDCA, average of six studies) and 3 (chenodeoxycholic acid-glycine)
[13] = averaged Cmean value of the baseline and control groups
[14] = final model (without sex effect), population estimate (RSE%)
[15] = model with sex effect, population estimate (RSE%)

C[C@H](CCC(=O)O)[C@H]1CC[C@H]2[C@@H]3[C@H](O)C[C@@H]4C[C@H](O)CC[C@]4(C)[C@H]3CC[C@]12C [CDCA, chenodeoxycholic acid]
Denovo ksyn [1, 12]: 17 µmol/h
Denovo ksyn ([1]; synthesis rate of unconjugated chenodeoxycholic acid (information 1)): 18 µmol/h
Plasma baseline [2, 13]: 510 nM

CC(CCC(=O)NCC(=O)O)C1CCC2C3C(O)CC4CC(O)CCC4(C)C3CCC12C (centres unmarked) [GCDCA, glycochenodeoxycholic acid]
Denovo ksyn [1, 12]: 14 µmol/h
Plasma baseline [2, 13]: 540 nM

C[C@H](CCC(=O)NCC(=O)O)[C@H]1CC[C@H]2[C@@H]3[C@H](O)C[C@@H]4C[C@H](OS(=O)(=O)O)CC[C@]4(C)[C@H]3CC[C@]12C [GCDCA‐S, Glycochenodeoxycholic acid 3‐O‐sulfate]
fraction excreted in urine (f e) [3]: < 1%
fe (inferred) ([4]; from data of ref 2): < 6.6%
fe (inferred) ([4]; from data of ref 3): < 6.9%
fe (inferred) ([4]; from data of ref 4): < 3.3%
fe (inferred) ([4]; from data of ref 16): < 3.1%
difference in plasma concentrations, chronic kidney disease patients relative to healthy individuals [5]: no significant difference
Inferred ksyn ([6]; based on information 1): < 3.0 µmol/h
Inferred ksyn ([6]; based on information 2): < 2.8 µmol/h
Inferred ksyn ([6]; based on information 3): < 2.2 µmol/h
fraction excreted in urine (f e) ([7]; estimated from POP-PK model): < 5%
V c,GCDCA–S ([7]; final model (without sex effect), fixed at value initially estimated from the POP-PK model): 4.8 L and 4.8 (FIXED) L
CL h,GCDCA–S [7, 14]: 15 (13) L/h
ksyn [7, 14]: 1.0 (18) μmol/h
biliary excretion as share of elimination ([7]; from POP-PK model): ~ 95% and > 95%
Vc, GCDCAS ([7]; model with sex effect, fixed): 4.8 L
CLR, GCDCAS [7, 15]: 0.31 (8) L/h
CLh, GCDCAS [7, 15]: 14 (13) L/h
COVSEX (fractional change in ksyn in women relative to men) [7, 15]: 0.065 (404)
ksyn [7, 15]: 1.0 (18) μmol/h
CLR [8]: 0.37 L/h
Plasma baseline ([2]; human, in vivo): 85 nM
Cbaseline [9]: 87 nM

CCCN(CCC)S(=O)(=O)c1ccc(C(=O)O)cc1 [PROB, probenecid]
inhibition of OATP1B transporters (OATP1B transporters): weakly inhibits
clearance ([10]; both sexes, human, plasma, oral, 500 mg): 15.8 mL/min
V PROB [10]: 17 (10) L
ka PROB ([10]; 500 mg oral approx. every 6 h): 1.1 (37) /h

C[C@H](CCC(=O)O)[C@H]1CC[C@H]2[C@@H]3CC[C@@H]4C[C@H](OS(=O)(=O)O)CC[C@]4(C)[C@H]3CC[C@]12C [lithocholic acid sulfate]
fraction excreted in urine (f e) [11]: < 5%

Reference: publication PMC12641067 (Clinical Pharmacology and Therapeutics, 2025)
